Entries after “also recorded” stand apart in the source; their conditions may differ.
What was measured:
Type I GnRHR = test: Binding affinity for Type I GnRHR (data not shown)
Type II GnRHR = biological target: T1, Type II GnRHR (Callithrix jacchus, UniProt Q95MG6); test: Binding affinity for Type II GnRHR (data not shown)
T1 sequence (Q95MG6 1-380): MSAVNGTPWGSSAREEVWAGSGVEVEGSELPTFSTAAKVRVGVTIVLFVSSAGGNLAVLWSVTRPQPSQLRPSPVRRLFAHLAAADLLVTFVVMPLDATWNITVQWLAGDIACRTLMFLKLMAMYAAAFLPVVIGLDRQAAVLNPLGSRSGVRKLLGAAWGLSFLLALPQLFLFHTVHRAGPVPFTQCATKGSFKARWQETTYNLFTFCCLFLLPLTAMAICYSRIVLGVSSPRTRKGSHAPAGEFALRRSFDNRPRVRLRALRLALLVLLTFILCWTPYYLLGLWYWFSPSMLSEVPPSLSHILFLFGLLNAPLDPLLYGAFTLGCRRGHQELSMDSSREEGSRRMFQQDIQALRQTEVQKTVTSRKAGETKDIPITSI

Gαi-type G protein = test: Inhibition of forskolin-stimulated cAMP accumulation in JEG-3 cells; format: cell-based, human; details: for FSK-stimulated intracellular cAMP accumulation after ligand pre-exposure: 100 nM, pre-exposure 10, 30, 60 minutes; for effect of PTX on ligand-mediated inhibition of FSK-stimulated cAMP accumulation: 60 minute pre-exposure, PTX 200 ng/ml 16 h
Excerpt: In both BPH-1 and JEG-3 cells GnRH and Ant 135-25 can antagonize forskolin (FSK) stimulated intracellular cAMP accumulation. Panels a and b respectively depict the effects of FSK, GnRH I and Ant 135-25 upon intracellular levels of cAMP in BPH-1 and JEG-3 cells measured using a calorimetric Biomol cAMP assay kit. […] Each histogram in panels a to d depicts the mean±s.e. mean of three to four experimental replicates of the cAMP accumulation assay.
Thus we noted that when cyclic adenosine monophosphate levels (cAMP) were measured using a commercially available […] assay system (Biomol) the ability of forskolin (1 μM in JEG-3 and 3 μM in BPH-1, sufficient to give a 50% Rmax response in each case) was blunted with extended cellular pre-treatment times (10 to 60 minutes) with either 100 nM GnRH I or Ant 135-25 (FIG. 9, panel a-BPH, panel b-JEG). […] Therefore it appears that both ligands can efficiently activate the adenylate cyclase inhibitory activity of Gαi in both cell models tested.

[1] = tested on: Type II GnRHRs cloned from several species; details: Ott et al (2002); cited from earlier work
[2] = tested on: caspase 3 and procaspase 3; test: Caspase 3 / procaspase 3 immunoblot of JEG-3 whole cell lysates; format: cell-based, human; details: JEG-3 cells, 100 nM continuously, time course
Description: (§1) All twelve panels depict either phase contrast (1, 4, 7, 10), confocal laser microscope (2, 5, 8, 11) or phase contrast/confocal merged images (3, 6, 9, 12). Panels 1 to 3 depict untreated control JEG-3 cells for cells in panels 4 to 6 which have been treated with GnRH I (100 nM) for 24 h. All cells have been exposed while live to an annexin V recombinant protein conjugated to the FITC fluorophore. The annexin V will bind specifically only to phosphatidlyserine (PS) lipids usually only expressed on the intracellular side of the plasma membrane lipid bilayer. An early sign of apoptosis is the translocation of these PS lipids from the intracellular side of the membrane to the outer aspect of the bilayer. […] The cellular levels of caspase 3 and procaspase 3 were assessed by specific immunoblotting of JEG-3 or BPH-1 whole cell (w-c) lysates from cells stimulated continuously with GnRH I for the times depicted.
(§2) Thus we have shown that upon continuous GnRH ligand stimulation of either JEG-3 or BPH-1 there is a retardation of cell growth, however we were interested as to whether there was any genuine induction of cellular apoptosis recently reported to occur in several tumour cell lines (Soon et al (2002) J. Clin. Endocrinol. Metab. 87, 4580-4586). […] Initially we measured the effects of GnRH stimulation upon the ultrastructural integrity of the cells plasma membrane. […]

[3] = tested on: caspase 3 and procaspase 3; test: Caspase 3 / procaspase 3 immunoblot of BPH-1 whole cell lysates; format: cell-based, human; details: BPH-1 cells, continuous stimulation, time course
Description: as §1, §2

Substance | binding affinity for Type I GnRHR (Type I GnRHR) | binding affinity for Type II GnRHR (Type II GnRHR) | FSK-stimulated intracellular cAMP accumulation after ligand pre-exposure (Gαi-type G protein) | effect of PTX on ligand-mediated inhibition of FSK-stimulated cAMP accumulation (Gαi-type G protein) | partial agonistic activity upon Type II GnRHRs cloned from several species [1] | cellular level of cleaved (active) caspase-3 [2] | cellular level of pro-caspase 3 [2] | cellular levels of pro-caspase 3 and cleaved caspase-3 [3]
Ac-D-Nal(2)-D-4-ClPhe-D-Pal-Ser-1-MePal-D-IsopropylLys-Leu-IsopropylLys-Pro-D-AlaNH2 [Ant 135-25] | high binding affinity | high binding affinity | significantly reduced; also recorded: blunted | can be specifically inhibited with a 16 h pre-incubation of the cells with 200 ng/ml of PTX; also recorded: attenuated by a 16 h pre-treatment with 200 ng/ml PTX |  |  |  | 
Ac-D-Nal(2)-D-4-ClPhe-D-Pal-Ser-Ile-D-IsopropylLys-Leu-IsopropylLys-Pro-D -AlaNH2 [Ant 135-18] |  |  |  |  | high degree of partial agonistic activity |  |  | 
GnRH I: Gonadotropin-Releasing Hormone, a decapeptide; the original form of GnRH, re-named GnRH I |  |  | significantly reduced; also recorded: blunted | can be specifically inhibited with a 16 h pre-incubation of the cells with 200 ng/ml of PTX; also recorded: attenuated by a 16 h pre-treatment with 200 ng/ml PTX |  | enhanced expression of the pro-apoptotic proteases cleaved-caspase 3 and procaspase 3; also recorded: only significantly evident between 48-72 h | enhanced expression of the pro-apoptotic proteases cleaved-caspase 3 and procaspase 3; also recorded: significant elevation in the cellular levels of pro-caspase 3 evident from 24-48 h | enhanced expression of the pro-apoptotic proteases cleaved-caspase 3 and procaspase 3; also recorded: more rapid onset on the generation of cleaved caspase-3

— patent US7361633B2, “Screening method and anti-tumor drug candidate obtained therefrom” (Ardana Bioscience Limited, priority 2002, dated 2008)
